Earlier results on two compounds are cited in US20250268823A1, “Aqueous Quetiapine Solutions” (RELIIS LTD, priority 2022, published 2025).

The target in data set [1] is dopaminergic D2 receptors (Homo sapiens, UniProt P14416).
For data set [2], the target named is dopaminergic D1 receptors (Homo sapiens, UniProt P21728).

Counter-ions that a name gives are not always drawn.

Chain of dopaminergic D2 receptors (P14416 whole entry): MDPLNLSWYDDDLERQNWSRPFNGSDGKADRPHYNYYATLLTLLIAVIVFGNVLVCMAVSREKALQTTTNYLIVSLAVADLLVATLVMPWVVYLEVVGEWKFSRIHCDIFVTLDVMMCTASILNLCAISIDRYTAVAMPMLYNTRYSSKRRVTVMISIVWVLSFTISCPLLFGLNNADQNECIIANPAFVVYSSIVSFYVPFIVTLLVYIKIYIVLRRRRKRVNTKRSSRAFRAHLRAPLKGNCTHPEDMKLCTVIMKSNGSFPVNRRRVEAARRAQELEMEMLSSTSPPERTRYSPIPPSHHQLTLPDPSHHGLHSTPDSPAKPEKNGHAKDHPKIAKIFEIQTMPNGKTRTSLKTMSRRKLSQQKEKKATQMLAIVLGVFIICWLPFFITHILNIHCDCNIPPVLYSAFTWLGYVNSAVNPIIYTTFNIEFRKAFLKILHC
Chain of dopaminergic D1 receptors (P21728 whole entry): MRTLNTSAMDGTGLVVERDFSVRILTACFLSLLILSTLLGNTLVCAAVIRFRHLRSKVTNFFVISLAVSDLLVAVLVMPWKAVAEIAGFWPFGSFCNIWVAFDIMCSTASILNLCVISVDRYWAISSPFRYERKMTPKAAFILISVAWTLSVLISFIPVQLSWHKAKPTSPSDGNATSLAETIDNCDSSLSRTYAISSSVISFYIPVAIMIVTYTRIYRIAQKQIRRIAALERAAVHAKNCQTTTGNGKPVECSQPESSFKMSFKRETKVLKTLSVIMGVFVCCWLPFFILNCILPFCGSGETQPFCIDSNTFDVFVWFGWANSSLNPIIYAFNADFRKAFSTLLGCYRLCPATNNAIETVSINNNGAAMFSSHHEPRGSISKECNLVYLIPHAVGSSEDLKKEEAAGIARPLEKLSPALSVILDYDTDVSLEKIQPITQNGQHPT

For the compound `OCCOCCN1CCN(C2=Nc3ccccc3Sc3ccccc32)CC1` [Quetiapine, 2-(2-(4-(dibenzo[b,f][1,4]thiazepin-11-yl)piperazin-1-yl)ethoxy)ethanol], the “affinity to α1-adrenergic receptors” value in the data set on α1-adrenergic receptors is given as “moderate affinity”. For the same compound, in data set [1], the “affinity to D2 receptors” value is listed as “major affinity” and the “binding at D2 receptors” value was “low binding”. Besides, in the data set with α2-adrenergic receptors, the “affinity to α2-adrenergic receptors” value is “moderate affinity”. The “affinity to D1 receptors” value in data set [2] is on record as “major affinity”.

As to `OCCOCCN1CCN(C2=Nc3ccccc3Sc3ccccc32)CC1` [quetiapine fumarate], the solubility in water entry is “about 0.04 mg/ml”.
